Test results reported in PubChem BioAssay (NCI).
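Where inhibition never reached the appropriate level, the endpoint shown equals the highest concentration tested. Otherwise, values were interpolated linearly from a five-concentration, 48-hour dose response in 96-well plates. GI50 = concentration required for 50% inhibition of growth. The concentration for full growth arrest is given as TGI.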

What was measured:
Assay in all cases: DTP human tumour cell line panel, 48 h
A498 renal = system: A498 renal
EKVX NSCLC = system: EKVX NSCLC
HT29 colon = system: HT29 colon
IGROV1 ovarian = system: IGROV1 ovarian
RXF 393 renal = system: RXF 393 renal
SK-OV-3 ovarian = system: SK-OV-3 ovarian
SNB-75 CNS = system: SNB-75 CNS
SW-620 colon = system: SW-620 colon
TK-10 renal = system: TK-10 renal
NCI/ADR-RES ovarian = system: NCI/ADR-RES ovarian

Row | SMILES | TGI (A498 renal) | TGI (EKVX NSCLC) | TGI (HT29 colon) | TGI (IGROV1 ovarian) | TGI (RXF 393 renal) | TGI (SK-OV-3 ovarian) | TGI (SNB-75 CNS) | TGI (SW-620 colon) | TGI (TK-10 renal) | GI50 (A498 renal) | GI50 (EKVX NSCLC) | GI50 (HT29 colon) | GI50 (IGROV1 ovarian) | GI50 (NCI/ADR-RES ovarian) | TGI (NCI/ADR-RES ovarian) | GI50 (SK-OV-3 ovarian) | GI50 (SNB-75 CNS) | GI50 (SW-620 colon) | GI50 (TK-10 renal) | GI50 (RXF 393 renal)
1 | COc1ccc(-c2cc(C(=O)Nc3ccc(C)c(C)c3)nc(NC#N)n2)cc1 | > 100 µM | > 100 µM | > 100 µM | > 100 µM | > 100 µM | > 100 µM | > 100 µM | > 100 µM | > 100 µM |  |  |  |  |  |  |  |  |  |  | 
2 | COCOCC/C=C/C=O | > 100 µM | > 100 µM | > 100 µM | > 100 µM | > 100 µM | > 100 µM | > 100 µM | > 100 µM | > 100 µM |  |  |  |  |  |  |  |  |  |  | 
3 | COC(=O)c1cc2c(cc1Cl)SC1=NN(C)C(N(C)C)N1S2(=O)=O (configuration not stated) | > 100 µM | > 100 µM | > 100 µM | > 100 µM |  | > 100 µM | > 100 µM | > 100 µM | > 100 µM | > 100 µM | > 100 µM | > 100 µM | > 100 µM | > 100 µM | > 100 µM | > 100 µM | > 100 µM | > 100 µM | > 100 µM | 
4 | CCCCC1(C)C=C/C(=C2/C(=O)O/C(=C\C(=O)O)C2=O)O1 (configuration not stated) | > 100 µM | > 100 µM | > 100 µM | > 100 µM |  | > 100 µM | > 100 µM | > 100 µM | > 100 µM |  |  |  |  |  |  |  |  |  |  | 
5 | C/C(=C\c1cnc(C)s1)[C@@H]1C[C@@H]2O[C@@H]2CCC[C@H](C)[C@H](O)[C@@H](C)C(=O)C(C)(C)[C@@H](O)CC(=O)O1 |  | > 100 µM | > 100 µM | > 100 µM | > 100 µM | > 100 µM |  | > 100 µM | > 100 µM |  | 0.0127 µM | < 0.01 µM | 0.0103 µM | 0.0228 µM | > 100 µM | < 0.0125 µM | < 0.01 µM | < 0.01 µM | 0.936 µM | < 0.01 µM
6 | CC1=C(CC(=O)c2cccc([N+](=O)[O-])c2)C(=O)c2ccccc2C1=O | > 100 µM |  | 58.8 µM | 29 µM | 16.6 µM | 99.2 µM | 10.2 µM | 18.9 µM | 85.8 µM | 42.5 µM |  | 20.1 µM | 4.62 µM | 3.38 µM | 20.6 µM | 28.6 µM | 2.22 µM | 4.01 µM | 39.7 µM | 3.14 µM
7 | N#CC(c1ccccn1)c1nc2ccccc2[nH]1 (configuration not stated) | > 100 µM | > 100 µM | > 100 µM |  |  | > 100 µM | > 100 µM | > 100 µM | > 100 µM |  |  |  |  |  |  |  |  |  |  | 
8 | O=C1c2sccc2-c2cccc3cccc1c23 (tested in a mixture with another compound) |  | 0.105 µM | 15.2 µM | 50.2 µM | > 100 µM | > 100 µM | 37.3 µM | 17.2 µM | 22.6 µM |  |  |  |  |  | 47.2 µM |  |  |  |  | 
9 | Cc1nc(C(=O)O)c2ccccc2n1 | > 100 µM |  | > 100 µM | > 100 µM | > 100 µM | > 100 µM | > 100 µM | > 100 µM | > 100 µM |  |  |  |  |  |  |  |  |  |  | 
10 | O=S(=O)(c1cccc(N=C=S)c1)c1cccc(N=C=S)c1 |  | > 100 µM |  | 34.7 µM | 30 µM | 37.3 µM |  |  | 40 µM |  |  |  |  |  |  |  |  |  |  | 
11 | N#CC(C#N)c1ccc(C(=O)N2CCC[C@H]2CO)cc1 |  | > 100 µM | > 100 µM | > 100 µM | > 100 µM | > 100 µM | > 100 µM | > 100 µM | > 100 µM |  |  |  |  |  |  |  |  |  |  | 
12 | COc1ccc(NC(=O)C2CCC(CNS(=O)(=O)c3ccccc3)CC2)cc1OC (configuration not stated) | > 100 µM | > 100 µM |  | > 100 µM | > 100 µM |  |  | > 100 µM | > 100 µM | > 100 µM | > 100 µM |  | > 100 µM | > 100 µM | > 100 µM |  |  | > 100 µM | > 100 µM | > 100 µM
13 | O=C(Nc1cccc(-n2cc(-c3ccncc3)c(-c3cc(O)cc(Cl)c3)n2)c1)c1cc(C(F)(F)F)cc(C(F)(F)F)c1 | 90.8 µM |  | 37.7 µM | > 100 µM | 4.35 µM | > 100 µM | > 100 µM | > 100 µM |  | 4.75 µM |  | 2.5 µM | 7.96 µM | 4.55 µM | > 100 µM | 10.8 µM | 2.8 µM | 4.48 µM |  | 1.69 µM
14 | COc1cc2c(cc1OC)-c1ncc3c(OC)c(OC)c(OC)cc3c1C2 |  |  |  |  |  | 43.2 µM | > 100 µM | > 100 µM | 50.4 µM |  |  |  |  | 13.4 µM | 45 µM | 18.9 µM | 28.9 µM | 34.2 µM | 18.9 µM | 
15 | CCc1cccc(C)c1NC(=O)c1sc2nc3c(cc2c1N)C(=O)CCC3 | 0.759 µM |  | 2.3 µM | > 100 µM |  | > 100 µM | > 100 µM | > 100 µM | 79.6 µM | 0.2 µM |  | 0.411 µM | 4.75 µM | 0.768 µM | > 100 µM | 0.541 µM | 0.527 µM | 0.4 µM | 0.774 µM | 
16 | COCCNC(=O)C1C(=O)C(=O)N(CCOC)C1=O (configuration not stated) | > 100 µM | > 100 µM | > 100 µM | > 100 µM | > 100 µM | > 100 µM | > 100 µM | > 100 µM | > 100 µM |  |  |  |  |  |  |  |  |  |  | 
17 | CCCCCCNC(=O)Oc1ccc(/C(=C(\C)c2ccc(Cl)cc2)c2ccc(OCCN3CCCCC3)cc2)cc1 |  | 14.4 µM | 4.02 µM | 10.5 µM | 7.55 µM | 13.6 µM | 14.3 µM | 5.59 µM | 12.2 µM |  | 5.04 µM | 1.11 µM | 4.38 µM | 4.15 µM | 8.77 µM | 5.42 µM | 5.59 µM | 1.54 µM | 5.79 µM | 3.3 µM
18 | OC(C#Cc1ccccc1)(c1ccccc1)c1ccccc1 | 83.4 µM | 82.4 µM | 78.4 µM | > 100 µM |  | > 100 µM | > 100 µM | > 100 µM | 77.4 µM |  |  |  |  |  | > 100 µM |  |  |  |  | 
19 | Cc1ccc(C)c(N2C(=O)C(=O)C(c3nc4ccccc4s3)/C(=N/NC(=O)NN)C2=O)c1 (configuration not stated) | > 100 µM | > 100 µM | > 100 µM | > 100 µM | > 100 µM | > 100 µM | > 100 µM | > 100 µM | > 100 µM |  |  |  |  |  |  |  |  |  |  | 
